From ChEMBL document CHEMBL4834494, “Discovery of the First Non-cGMP Mimetic Small Molecule Activators of cGMP-Dependent Protein Kinase 1 α (PKG1α)” (ACS Med Chem Lett, 2021) come the findings set out here.

Molecules are shown by their SMILES. ≈ marks a conversion by molar mass, not a printed value.

A short description of data set [1]: Solubility of compound by pH 7 measured for 24 hrs by UPLC analysis. Particulars: buffer. The data set is classed as physicochemical.
Data set [2] in a line: Apparent permeability in dog MDCKII cells. The data set is classed as ADME, cell-based, Canis lupus familiaris, MDCK-II. The conditions noted are these: MDCK.
Data set [3] concerns the target T1, cGMP-dependent protein kinase 1 (Homo sapiens, UniProt Q13976).
T1 sequence (Q13976 whole entry): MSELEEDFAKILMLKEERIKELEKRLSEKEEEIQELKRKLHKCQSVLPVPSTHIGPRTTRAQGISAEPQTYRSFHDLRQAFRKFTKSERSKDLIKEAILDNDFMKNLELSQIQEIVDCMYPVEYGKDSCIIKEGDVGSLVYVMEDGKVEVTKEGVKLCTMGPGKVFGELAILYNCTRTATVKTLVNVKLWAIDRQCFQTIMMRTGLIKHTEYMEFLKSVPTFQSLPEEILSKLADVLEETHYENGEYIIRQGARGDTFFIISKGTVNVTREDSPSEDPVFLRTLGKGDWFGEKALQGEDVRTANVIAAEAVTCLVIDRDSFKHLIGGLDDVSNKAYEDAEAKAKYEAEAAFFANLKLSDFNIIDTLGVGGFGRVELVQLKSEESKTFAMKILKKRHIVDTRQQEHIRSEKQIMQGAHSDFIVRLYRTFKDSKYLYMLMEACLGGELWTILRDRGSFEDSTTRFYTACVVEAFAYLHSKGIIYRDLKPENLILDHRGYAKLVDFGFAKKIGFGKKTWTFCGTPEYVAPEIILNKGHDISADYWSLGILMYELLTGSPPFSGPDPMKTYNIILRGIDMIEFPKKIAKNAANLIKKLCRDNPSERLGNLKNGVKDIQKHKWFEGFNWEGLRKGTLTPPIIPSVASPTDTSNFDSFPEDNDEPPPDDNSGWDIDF
Put plainly: Activation of PKG1alpha (unknown origin) in human HEK293 cellls assessed as […] phosphorylation at Ser 239 incubated for 3 hrs by HTRF assay. It is filed as cell-based.

For data set [4], the target named is T1, cGMP-dependent protein kinase 1. Put plainly: Activation of full length PKG1alpha (unknown origin) using Glass-tide peptide substrate incubated for 120 mins followed by addition of ADP-Glo max reagent incubated for 40 mins. In general terms: In ADP-Glo the light output rises with the ADP produced.

Usually solubility stands for how much of the substance goes into solution per volume. The low end stands for a poorly soluble substance, the high end for a readily soluble substance. One may read the Papp as a coefficient for how fast a substance crosses the barrier. As a reminder, the EC50 is the concentration that produces a half-maximal response. `Clc1cc(Cl)cc(CO[C@H]2CCCN(Cc3ncc[nH]3)[C@H]2c2ccccc2)c1`: in data set [1], the solubility at 24 h turned out to be 120 µM (≈ 50 µg/mL). Further, the Papp in data set [2] is 2 ×10⁻⁶ cm/s. For the same compound, the EC50 in data set [3] is above 164 µM.
In data set [4], `Cn1cc(CN2CCC[C@H](OCc3cc(Cl)cc(Cl)c3)[C@@H]2c2ccccc2)cn1` displayed a concentration for a half-maximal effect (EC50) of 110 µM.
On to `COC(=O)Nn1c(C[C@H]2CCC[C@H](OCc3cc(C(F)(F)F)cc(C(F)(F)F)c3)[C@@H]2c2ccccc2)n[nH]c1=O`, for which the 50% effective concentration (EC50) in data set [4] turned out to be 4.5 µM; in data set [3], 12 µM. In data set [1], this compound came in with a solubility at 24 h of 154 µM (≈ 88.2 µg/mL). Besides, the apparent permeability coefficient (Papp) in data set [2] came to 15 ×10⁻⁶ cm/s.
Compound `Clc1cc(Cl)cc(CO[C@H]2CCCN(Cc3ccccn3)[C@H]2c2ccccc2)c1` came in with a 50% effective concentration (EC50) in data set [4] above 200 µM.
Regarding `O=C(O)c1ccc(CN2CCC[C@H](O[C@H](CO)c3cc(Cl)cc(Cl)c3)[C@@H]2c2ccccc2)cc1`, the values for the EC50 in data set [4] and in data set [3] were 11 µM and 15 µM, respectively. The same compound registered a solubility at 24 h in data set [1] of 85 µM (≈ 42.5 µg/mL). The Papp in data set [2] was 16 ×10⁻⁶ cm/s.
The compound `Clc1cc(Cl)cc(CO[C@H]2CCCN(Cc3ncco3)[C@H]2c2ccccc2)c1` came in with a concentration for a half-maximal effect (EC50) in data set [4] above 200 µM.
Same read-out and setting: the result for `O=C(O)c1ccc(CN2CCC[C@H](OCc3cc(Cl)cc(Cl)c3)[C@@H]2c2ccccc2)cn1` reads above 200 µM.
The same measure, in the same setting: the same measure for `Clc1cc(Cl)cc(CO[C@H]2CCCN(Cc3nccs3)[C@H]2c2ccccc2)c1`: above 200 µM.
`OC[C@@H](O[C@H]1CCCN(Cc2ncc[nH]2)[C@H]1c1ccccc1)c1cc(Cl)cc(Cl)c1` displayed a solubility at 24 h in data set [1] of 60 µM (≈ 26.8 µg/mL). Moreover, the Papp in data set [2] was determined as 19 ×10⁻⁶ cm/s. In addition, the EC50 in data set [3] came to 8.8 µM.
Take `COc1cc(C(=O)O)ccc1CN1CCC[C@H](OCc2cc(Cl)cc(Cl)c2)[C@@H]1c1ccccc1`: the response in data set [4] was half-maximal at 62 µM (EC50).
Turning to `O=C(O)c1cncc(CN2CCC[C@H](O[C@H](CO)c3cc(Cl)cc(Cl)c3)[C@@H]2c2ccccc2)c1`, the concentration giving a half-maximal response (EC50) in data set [4] stood at 34 µM; in data set [3] it was 28 µM. The concentration in solution in data set [1] (solubility at 24 h) was 74 µM (≈ 37.1 µg/mL). The apparent permeability (Papp) in data set [2] amounted to 14 ×10⁻⁶ cm/s.
In turn, `Clc1cc(Cl)cc(CO[C@H]2CCCN(Cc3ccc(-c4nn[nH]n4)cc3)[C@H]2c2ccccc2)c1` came in with an EC50 in data set [4] of 74 µM.
Same read-out and setting: the same measure for `O=C(O)c1cncc(CN2CCC[C@H](OCc3cc(Cl)cc(Cl)c3)[C@@H]2c2ccccc2)c1`: 117 µM.
On the same count and under the same terms, the same measure for `Clc1cc(Cl)cc(CO[C@H]2CCCN(Cc3cccnc3)[C@H]2c2ccccc2)c1`: 112 µM; for `COc1ccc(C(=O)O)cc1CN1CCC[C@H](OCc2cc(Cl)cc(Cl)c2)[C@@H]1c1ccccc1`: 123 µM.
On the same count and under the same terms, the result for `C[C@@H](O[C@H]1OCCN(Cc2n[nH]c(=O)[nH]2)[C@H]1c1ccc(F)cc1)c1cc(C(F)(F)F)cc(C(F)(F)F)c1` [APREPITANT] reads above 200 µM; that for `Clc1cc(Cl)cc(CO[C@H]2CCCN(Cc3ccncc3)[C@H]2c2ccccc2)c1`, above 200 µM.
The compound `OC[C@@H](O[C@H]1CCCN(Cc2ccc(-c3nn[nH]n3)cc2)[C@H]1c1ccccc1)c1cc(Cl)cc(Cl)c1` displayed an EC50 in data set [4] of 131 µM.
The same measure, in the same setting: the result for `Clc1cc(Cl)cc(CO[C@H]2CCCN(Cc3ccccc3)[C@H]2c2ccccc2)c1` reads above 200 µM.
On the same count and under the same terms, the result for `O=C(O)c1ccc(CN2CCC[C@H](OCc3cc(Cl)cc(Cl)c3)[C@@H]2c2ccccc2)cc1` reads 76 µM.
With `OC[C@@H](O[C@H]1CCCN(Cc2cccc3nonc23)[C@H]1c1ccccc1)c1cc(Cl)cc(Cl)c1`, the concentration for a half-maximal effect (EC50) worked out at 8 µM in data set [4] and 141 µM in data set [3]. The same compound showed a solubility at 24 h in data set [1] of 154 µM (≈ 76.8 µg/mL). For the same compound, the apparent permeability coefficient (Papp) in data set [2] was 11 ×10⁻⁶ cm/s.
As for `O=C(O)c1ccc2c(CN3CCC[C@H](O[C@H](CO)c4cc(Cl)cc(Cl)c4)[C@@H]3c3ccccc3)c[nH]c2c1`, the EC50 came out at 22 µM in data set [4] and 140 µM in data set [3]. The compound also registered a solubility at 24 h in data set [1] of 128 µM (≈ 69.1 µg/mL). Moreover, the Papp in data set [2] amounted to 4 ×10⁻⁶ cm/s.
Consider `Cn1ccnc1CN1CCC[C@H](OCc2cc(Cl)cc(Cl)c2)[C@@H]1c1ccccc1`, for which the EC50 in data set [4] was 165 µM.
Same read-out and setting: the same measure for `CN1CCC[C@H](OCc2cc(Cl)cc(Cl)c2)[C@@H]1c1ccccc1`: above 200 µM; for `O=C(O)c1ccc(CN2CCC[C@H](OCc3cc(Cl)cc(Cl)c3)[C@@H]2c2ccccc2)s1`: 76 µM; for `OC[C@@H](O[C@H]1CCCN(Cc2ccccc2Cc2nnco2)[C@H]1c1ccccc1)c1cc(Cl)cc(Cl)c1`: 3.7 µM.
On the same count and under the same terms, the same measure for `CN1CCC[C@H](O[C@H](CO)c2cc(Cl)cc(Cl)c2)[C@@H]1c1ccccc1`: 42 µM.
